According to the supplement of paper PMC11451515:

Tests used:
Experiment in all cases: AUC of viability dose-response curve (% viability x log10 dose units); higher = less sensitive
Conditions in all cases: 48 h
NOMO1 = test system: NOMO1
In short: (§1)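 Over 48 h at 37°C, leukemia cells in 1536-well plates (500 or 1000 cells/well), adapted to each medium, received library compounds in DMSO at 11 threefold doses from 47 μM to 0.79 nM. CellTiter-Glo One luminescence, normalised per plate to DMSO and cell-free wells, was fitted by a four-parameter log-logistic function of log10 dose. The area under the curve was then integrated by trapezoidal rule, after scaling curves above full viability and removing those that failed quality control.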

P12-Ichikawa = test system: P12-Ichikawa
In short: as §1

SEM cells = test system: SEM cells
In short: as §1

[1] = RPMI 5 mM glucose + 10% dialyzed FBS

SMILES: COc1cccc(Nc2c(C(N)=O)cnc3c(C)cc([S+](=O)([O-])c4cccc(C(=O)N(C)C)c4)cc23)c1
- AUC of viability dose-response curve (NOMO1; HPLM + 10% dialyzed FBS): 465
- AUC of viability dose-response curve (NOMO1; RPMI 5 mM glucose + 10% FBS): 472
- AUC of viability dose-response curve (NOMO1; [1]): 469
- AUC of viability dose-response curve (P12-Ichikawa; HPLM + 10% dialyzed FBS): 470
- AUC of viability dose-response curve (P12-Ichikawa; RPMI 5 mM glucose + 10% FBS): 472
- AUC of viability dose-response curve (P12-Ichikawa; [1]): 469
- AUC of viability dose-response curve (SEM cells; HPLM + 10% dialyzed FBS): 459
- AUC of viability dose-response curve (SEM cells; RPMI 5 mM glucose + 10% FBS): 466
- AUC of viability dose-response curve (SEM cells; [1]): 468
